Assays:
[1] = tested on: endogenous GPR55 (HeLa); test: LPI-induced ERK/p38 phosphorylation in shCTRL-HeLa clones (Western blot); format: cell-based, human; conditions: 10 µM soybean LPI, 10 min, mean of three independent experiments
Experimental: For stable interference of GPR55, HeLa cells were plated at 1.5 × 10^5 cells/well in six-well plates in growth medium without antibiotics, and 24 h later, the cells were transfected with 1.7 µg/well OmicsLink short hairpin (sh)RNA expression clone CSHCTR001-CU6 (shCTRL) or clone HSH022476-3-CU6 (shGPR55) from GeneCopoeia (Rockville, MD, USA), using Lipofectamine 2000, according the manufacturer instructions. Forty-eight hours after transfection, HeLa clones stably expressing shRNAs were selected in growth medium containing 0.3 µg/mL puromycin. The efficiency of interference was monitored by real-time PCR using the primers listed in the Additional file 1: Table S1. HPRT1 was followed as a housekeeping gene.
(§1) Twenty-four hours after transfection (HEK293T, HeLa cells or clones) or 72 h after interference (RAW264.7 cells), the cells were washed twice with HBSS^++, serum deprived (HEK293T cells for 4 h in DMEM; HeLa cells and clones for 2 h in MEM plus 2 mM glutamine and 25 mM HEPES; RAW264.7 cells for 2 h in DMEM), washed once again with HBSS^++, incubated in stimulation buffer (HBSS^++ with 10 mM HEPES, 0.4% faf-BSA for HEK293T cells; HBSS^++ with 25 mM HEPES and 0.01% faf-BSA for HeLa cells, clones, and RAW264.7 cells) in the absence or presence of stimuli, at 37 °C for the indicated times. Incubations were terminated by washing the cells twice with cold HBSS^++, and the analyses were performed as reported below.
Cell lysates were obtained by scraping the cells into phospho-lysis buffer: 50 mM Tris–HCl, pH 7.5, 100 mM NaCl, 5 mM EDTA, 1% Triton X-100, 50 mM NaF, 40 mM β-glycerophosphate, 200 µM sodium orthovanadate, plus protease and phosphatase inhibitors (Roche). Following gentle homogenisation by 20 passages through a 26-gauge needle, the lysates were centrifuged at 10,000×g for 5 min at 4 °C, and the supernatants were collected.
Protein lysates were subjected to SDS-PAGE, and after electrophoresis, the proteins were transferred to a nitrocellulose membrane (PerkinElmer Life Science, Boston, MA, USA). For immunoblotting, the membranes were blocked with 5% non-fat milk in TBS (10 mM Tris–HCl, pH 7.4, 10 mM NaCl) plus 0.1% Tween-20 (T-TBS) for 30 min at room temperature, and incubated with primary antibodies in T-TBS plus 3% BSA for 2 h at room temperature, or overnight at 4 °C. The membranes were washed twice in T-TBS for 7 min, and then incubated with secondary antibodies conjugated to horseradish peroxidase (1:5,000) (Calbiochem, San Diego, CA, USA) in T-TBS with 5% non-fat milk for 30 min at room temperature. The membranes were then washed twice with T-TBS and once with TBS for 5 min, and the signals were detected by ECL (Amersham Pharmacia, Piscataway, NJ, USA). The rabbit anti-phospho AKT (Ser473), anti-phospho p38 (Thr180/Tyr182), anti-phospho p42/44 (Thr202/Tyr204), anti-p38 (all at dilution 1:1000) were from Cell Signaling Technology (Danvers, MA, USA). The rabbit anti-AKT (B-1), and anti-p42/44 (ERK1; K-23) were from Santa Cruz Biotechnology.

[2] = tested on: HA-GPR55 in HEK293T cells; test: LPI-induced ERK1/2 activation in GPR55-transfected HEK293T cells; format: cell-based, human; conditions: 10 µM LPI
Excerpt: The construct of haemagglutinin (HA)-tagged human GPR55 in pcDNA3 (HA-GPR55) was a gift from Prof. K. Mackie, Indiana University, Bloomington, IN, USA [39], while the construct ss-3 × HA-GPR55 in pcDNA3.1 (ssGPR55) with a triple HA tag at the N-terminus and an optimised signal sequence (ss, derived from amino acids 1–33 of the human growth hormone: […]) for efficient surface expression was from Prof. A. Irving, Dundee University, UK [40]. For both constructs, mutations were introduced by site-directed mutagenesis using QuickChange kits (Stratagene, La Jolla, CA, USA), according to the manufacturer instructions. The primers for the K80A mutation were 5′-[…]-3′ and 5′-[…]-3′ (Tm, 70.6 °C), and for Q87A were 5′-[…]-3′ and 5′-[…]-3′ (Tm, 73.1 °C).
For GPR55 overexpression, HEK293T cells were plated in their growth medium without antibiotics at 2.6 × 10^5 cells/well in 12-well plates, and 24 h later, the cells were transfected with 1 µg cDNA/well using Lipofectamine 2000, according to the manufacturer instructions. The pcDNA3 empty vector or that coding for human HA-GPR55 wild-type or its mutants HA-GPR55-K80A and HA-GPR55-Q87A were used.
as §1, with “Incubations were terminated by washing the cells twice with cold HBSS^++, and the analyses were performed as reported below.” left out
Protein lysates were subjected to SDS-PAGE, and after electrophoresis, the proteins were transferred to a nitrocellulose membrane (PerkinElmer Life Science, Boston, MA, USA). […] The membranes were then washed twice with T-TBS and once with TBS for 5 min, and the signals were detected by ECL (Amersham Pharmacia, Piscataway, NJ, USA). […]

lysophosphatidylinositol [LPI]
ERK2 phosphorylation upon LPI stimulation [1]: 7.8 -fold basal levels | p38 phosphorylation upon LPI stimulation [1]: 2.5 -fold basal levels | activation kinetics of ERK1/2 ([2]; HEK293T with HA-GPR55 wild-type, K80A or Q87A): comparable activation kinetics of ERK1/2 in all of the transfectants | ERK1/2 phosphorylation, GPR55-transfected and empty-vector-transfected cells ([2]; HEK293T): increased phosphorylation of ERK1/2
